The record followed here is patent publication US20260274859A1, “FUSED POLYCYCLIC DERIVATIVE AND USE THEREOF” (ZHEJIANG HISUN PHARMACEUTICAL CO., LTD., priority 2023, published 2026).

Some results are limits rather than exact numbers.

What all share (assay type): cell-based
One experiment relates to A549 cells. The experiment in a line: Inhibition of proliferation of A549 cells (CCK8 or CTG). The conditions noted are these: Homo sapiens, maximum concentration 10 μM, 5-fold dilution. On the procedure:
(1) A549 cells in the logarithmic growth phase were digested with 0.25% trypsin and counted. The cells were inoculated into 96-well plates at 2000 cells per well, and the 96-well plates were placed in an incubator containing 5% CO2 at 37° C. for 12 h of culture.
(2) Six concentration gradients for the compounds to be tested (with the maximum drug concentration of 10 μM and 5-fold dilution) were set. After the cells adhered to the wall, the compounds to be tested were serially diluted with DMSO, then diluted with 1640 complete medium to reach a concentration 1000 times the final concentration, and added to the corresponding wells.
(§1) (3) After the corresponding concentrations of the compounds to be tested were added, the plates were incubated in an incubator with 5% carbon dioxide at 37° C., and then the cell viability rate at each drug concentration was determined by CCK8 or CTG method. In addition, the IC50 value was calculated.

A further experiment concerns HL60 cells. The experiment is described as follows: Inhibition of proliferation of HL60 tumor cells (CCK8 or CTG). To be noted: Homo sapiens, HL-60. On the procedure:
The effect of the compound of the present disclosure on the proliferation of tumor cells was determined using the following method. The HL60 cells used in the method were purchased from Nanjing Kebai Biotechnology Co., Ltd., and the kit was the Cell Counting Kit-8/CCK-8 kit of MCE Company (article number: HY—K0301, specification: 3000T).
(1) HL60 cells in logarithmic growth phase were prepared into a cell suspension. The cell suspension was added into a 96-well plate at 5000 cells/well. The 96-well cell culture plate was placed in a CO2 incubator for 4 h of incubation of suspended cells or for 12 h of incubation of adherent cells.
(2) The compounds to be tested were diluted with IMDM complete culture medium to reach a concentration twice the testing concentration, and added to the corresponding wells.
as §1

The subject of another experiment is HK-2 cells. The experiment in a line: Inhibition of proliferation of HK-2 cells (normal cells; CCK8 or CTG). The conditions noted are these: Homo sapiens, maximum concentration 10 μM, 5-fold dilution. The procedure:
(1) HK-2 cells in the logarithmic growth phase were digested with 0.25% trypsin and counted. The cells were inoculated into 96-well plates at 2000 cells per well, and the 96-well plates were placed and cultured in an incubator containing 5% CO2 at 37° C. for 12 h.
(2) Six concentration gradients for the compound to be tested (with the maximum drug concentration of 10 μM and 5-fold dilution) were set. After the cells adhered to the wall, the compounds to be tested were serially diluted with DMSO, then diluted with 1640 complete medium to reach a concentration 1000 times the final concentration, and added to the corresponding wells.
as §1

In the case of `CC(C)NC1CC(C(=O)Nc2sc3c(c2-c2nc4ccc(-c5ccc(N6CCNCC6)nc5)cc4s2)CCNC3)C1` (stereo not shown) [Compound 009, 3-(isopropylamino)-N-(3-(6-(6-(piperazin-1-yl)pyridin-3-yl)benzo[d]thiazol-2-yl)-4,5,6,7-tetrahydrothieno [2,3-c]pyridin-2-yl) cyclobutane-1-carboxamide], the IC50 in the experiment with A549 cells was 0.53 nM; in the experiment with HL60 cells it was below 150 nM.

For the compound `Cc1cn(-c2ccc3nc(-c4c(NC(=O)C5CC(NC(C)C)C5)sc5c4CCNC5)sc3c2)cn1` (stereo not shown) [Compound 014, 3-(isopropylamino)-N-(3-(6-(4-methyl-1H-imidazol-1-yl)benzo[d]thiazol-2-yl)-4,5,6,7-tetrahydrothieno[2,3-c]pyridin-2-yl)cyclobutane-1-carboxamide], the IC50 with HL60 cells is below 150 nM.

In the case of `CC(C)NC1CC(C(=O)Nc2sc3c(c2-c2nc4ccc(C5=CCN(C)CC5)cc4s2)CCNC3)C1` (stereo not shown) [Compound 017, 3-(isopropylamino)-N-(3-(6-(1-methyl-1,2,3,6-tetrahydropyridin-4-yl)benzo[d]thiazol-2-yl)-4,5,6,7-tetrahydrothieno[2,3-c]pyridin-2-yl)cyclobutane-1-carboxamide], the IC50 with A549 cells is 4.41 nM; in the experiment on HL60 cells, below 150 nM.

In turn, `CC(C)NC1CC(C(=O)Nc2sc3c(c2-c2nc4cc(C5=CCNCC5)ccc4s2)CCNC3)C1` (stereo not shown) [Compound 022, 3-(isopropylamino)-N-(3-(5-(1,2,3,6-tetrahydropyridin-4-yl)benzo[d]thiazol-2-yl)-4,5,6,7-tetrahydrothieno [2,3-c]pyridin-2-yl) cyclobutane-1-carboxamide] came in with an IC50 in the experiment on HL60 cells below 150 nM.

For the compound `CC(C)NC1CC(C(=O)Nc2sc3c(c2-c2nc4ccc(-c5ccc(C6=CCNCC6)nc5)cc4s2)CCNC3)C1` (stereo not shown) [Compound 047, 3-(isopropylamino)-N-(3-(6-(1′,2′,3′,6′-tetrahydro-[2, 4′-bipyridin]-5-yl)benzo [d]thiazol-2-yl)-4,5,6,7-tetrahydrothieno[2,3-c]pyridin-2-yl)cyclobutane-1-carboxamide], the IC50 is 18.3 nM in the experiment on A549 cells, below 150 nM in the experiment on HL60 cells and 1610 nM in the experiment on HK-2 cells.

`CC(C)NC1CC(C(=O)Nc2sc3c(c2-c2nc4ccc(C5=CCNCC5)cc4s2)CCNC3)C1` (stereo not shown) [Compound 048, 3-(isopropylamino)-N-(3-(6-(1,2,3,6-tetrahydropyridin-4-yl)benzo[d]thiazol-2-yl)-4,5,6,7-tetrahydrothieno[2,3-c]pyridin-2-yl)cyclobutane-1-formylamino]: the IC50 with A549 cells is 3.35 nM; in the experiment with HL60 cells it was below 150 nM; in the experiment on HK-2 cells, 1160 nM.

Regarding `CC(C)NC1CCC(C(=O)Nc2sc3c(c2-c2nc4ccc(-c5ccc(N6CCNCC6)nc5)cc4s2)CCNC3)CC1` (stereo not shown) [Compound 069, 4-(isopropylamino)-N-(3-(6-(6-(piperazin-1-yl)pyridin-3-yl)benzo[d]thiazol-2-yl)-4,5,6,7-tetrahydrothieno [2,3-c]pyridin-2-yl) cyclohexane-1-carboxamide], the IC50 was 7.8 nM in the experiment on A549 cells, below 150 nM with HL60 cells and 2440 nM in the experiment with HK-2 cells.

For the compound `CC(C)NCCNC(=O)Nc1sc2c(c1-c1nc3ccccc3s1)CCNC2` [Compound 077, 1-(3-(benzo[d]thiazol-2-yl)-4,5,6,7-tetrahydrothieno[2,3-c]pyridin-2-yl)-3-(2-(isopropylamino)ethyl) urea], the figures for the IC50 in the experiment with A549 cells, in the experiment on HL60 cells and with HK-2 cells were 43.4 nM, below 150 nM and 1260 nM, respectively.

In the experiment with HL60 cells, `COCCNC1CC(C(=O)Nc2sc3c(c2-c2nc4ccc(C5=CCNCC5)cc4s2)CCNC3)C1` (stereo not shown) [Compound 119, 3-((2-methoxyethyl)amino)-N-(3-(6-(1,2,3,6-tetrahydropyridin-4-yl)benzo [d]thiazol-2-yl)-4,5,6,7-tetrahydrothieno[2,3-c]pyridin-2-yl)cyclobutane-1-carboxamide] displayed an IC50 below 150 nM.

`CC(C)(C)NC1CC(C(=O)Nc2sc3c(c2-c2nc4ccc(C5=CCNCC5)cc4s2)CCNC3)C1` (stereo not shown) [Compound 120, 3-(tert-butylamino)-N-(3-(6-(1,2,3,6-tetrahydropyridin-4-yl)benzo[d]thiazol-2-yl)-4,5,6,7-tetrahydrothieno [2,3-c]pyridin-2-yl) cyclobutane-1-carboxamide]: the IC50 with A549 cells was 2.77 nM; in the experiment on HL60 cells, below 150 nM; in the experiment with HK-2 cells, 760 nM.

On to `Cc1cn(-c2ccc3sc(-c4c(NC(=O)C5CC(NC(C)C)C5)sc5c4CCNC5)nc3c2)cn1` (stereo not shown) [Compound 121, 3-(isopropylamino)-N-(3-(5-(4-methyl-1H-imidazol-1-yl)benzo[d]thiazol-2-yl)-4,5,6,7-tetrahydrothieno [2,3-c]pyridin-2-yl) cyclobutane-1-carboxamide], for which the IC50 is below 150 nM with HL60 cells and 725 nM in the experiment on HK-2 cells.

Take `CNCCNC(=O)C(=O)Nc1sc2c(c1-c1nc3ccc(C4=CCNCC4)cc3s1)CCNC2` [Compound 125, N^1-(2-(methylamino)ethyl)-N^2-(3-(6-(1,2,3,6-tetrahydropyridin-4-yl)benzo [d]thiazol-2-yl)-4,5,6,7-tetrahydrothieno[2,3-c]pyridin-2-yl)oxalamide]: the half-maximal inhibitory concentration (IC50) came to 65.2 nM in the experiment with A549 cells and 11100 nM in the experiment with HK-2 cells.

Consider `COCCNCCC(=O)Nc1sc2c(c1-c1nc3cc(-n4cnc(C)c4)ccc3s1)CCNC2` [Compound a, reference compound], for which the IC50 was 74 nM in the experiment on A549 cells, 150 to 1500 nM with HL60 cells and 520 nM in the experiment with HK-2 cells.

Turning to `CC(C)NCCC(=O)Nc1sc2c(c1-c1nc(-c3ccccc3)cs1)CCNC2` [Compound b, reference compound], the IC50 is 98.3 nM in the experiment with A549 cells and 242 nM with HK-2 cells.

A word on the IC50: it is the concentration that inhibits the measured activity by half. A lower IC50 goes with inhibition by little substance.
